Tested on: SEM cells
Assay: cell viability relative to DMSO control; higher = less cytotoxic
Conditions: 48 h
How it was run: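 In 1536-well plates, 5 μl of leukemia cells were seeded per well: 500 cells/well for NOMO1 or SEM and 1000 cells/well for P12-Ichikawa. Each line had first been adapted for at least four passages in each medium. Library compounds in DMSO were pin-dosed at 11 threefold concentrations between 47 μM and 0.79 nM, and CellTiter-Glo One luminescence was read after 48 h at 37°C. Viability is a per-plate percentage relative to DMSO wells, with cell-free wells as background.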

[1] = HPLM + 10% dialyzed FBS, 0.000781 µM
[2] = HPLM + 10% dialyzed FBS, 0.00234 µM
[3] = HPLM + 10% dialyzed FBS, 0.00702 µM
[4] = HPLM + 10% dialyzed FBS, 0.0211 µM
[5] = HPLM + 10% dialyzed FBS, 0.0632 µM
[6] = HPLM + 10% dialyzed FBS, 0.19 µM
[7] = HPLM + 10% dialyzed FBS, 0.569 µM
[8] = HPLM + 10% dialyzed FBS, 1.71 µM
[9] = HPLM + 10% dialyzed FBS, 5.12 µM
[10] = HPLM + 10% dialyzed FBS, 15.4 µM
[11] = HPLM + 10% dialyzed FBS, 46.1 µM
[12] = RPMI 5 mM glucose + 10% FBS, 0.000781 µM
[13] = RPMI 5 mM glucose + 10% FBS, 0.00234 µM
[14] = RPMI 5 mM glucose + 10% FBS, 0.00702 µM
[15] = RPMI 5 mM glucose + 10% FBS, 0.0211 µM
[16] = RPMI 5 mM glucose + 10% FBS, 0.0632 µM
[17] = RPMI 5 mM glucose + 10% FBS, 0.19 µM
[18] = RPMI 5 mM glucose + 10% FBS, 0.569 µM
[19] = RPMI 5 mM glucose + 10% FBS, 1.71 µM
[20] = RPMI 5 mM glucose + 10% FBS, 5.12 µM
[21] = RPMI 5 mM glucose + 10% FBS, 15.4 µM
[22] = RPMI 5 mM glucose + 10% FBS, 46.1 µM
[23] = RPMI 5 mM glucose + 10% dialyzed FBS, 0.000781 µM
[24] = RPMI 5 mM glucose + 10% dialyzed FBS, 0.00234 µM
[25] = RPMI 5 mM glucose + 10% dialyzed FBS, 0.00702 µM
[26] = RPMI 5 mM glucose + 10% dialyzed FBS, 0.0211 µM
[27] = RPMI 5 mM glucose + 10% dialyzed FBS, 0.0632 µM
[28] = RPMI 5 mM glucose + 10% dialyzed FBS, 0.19 µM
[29] = RPMI 5 mM glucose + 10% dialyzed FBS, 0.569 µM
[30] = RPMI 5 mM glucose + 10% dialyzed FBS, 1.71 µM
[31] = RPMI 5 mM glucose + 10% dialyzed FBS, 5.12 µM
[32] = RPMI 5 mM glucose + 10% dialyzed FBS, 15.4 µM
[33] = RPMI 5 mM glucose + 10% dialyzed FBS, 46.1 µM

Compound | cell viability [1] [%] | cell viability [2] [%] | cell viability [3] [%] | cell viability [4] [%] | cell viability [5] [%] | cell viability [6] [%] | cell viability [7] [%] | cell viability [8] [%] | cell viability [9] [%] | cell viability [10] [%] | cell viability [11] [%] | cell viability [12] [%] | cell viability [13] [%] | cell viability [14] [%] | cell viability [15] [%] | cell viability [16] [%] | cell viability [17] [%] | cell viability [18] [%] | cell viability [19] [%] | cell viability [20] [%] | cell viability [21] [%] | cell viability [22] [%] | cell viability [23] [%] | cell viability [24] [%] | cell viability [25] [%] | cell viability [26] [%] | cell viability [27] [%] | cell viability [28] [%] | cell viability [29] [%] | cell viability [30] [%] | cell viability [31] [%] | cell viability [32] [%] | cell viability [33] [%]
O=C1NC(=O)/C(=C/c2cccc(C(F)(F)F)c2)S1 | 100 | 93.3 | 96.5 | 108 | 101 | 102 | 100 | 100 | 107 | 89.1 | 66.7 | 99.5 | 100 | 110 | 108 | 112 | 108 | 115 | 104 | 108 | 98.9 | 59.7 | 93.7 | 106 | 106 | 115 | 99.6 | 94.4 | 102 | 108 | 109 | 102 | 62.5
COc1cc(-c2nn(C3CCC(N4CCN(C(C)=O)CC4)CC3)c3ncnc(N)c23)ccc1NC(=O)c1cc2ccccc2n1C (configuration not stated) | 121 | 117 | 123 | 113 | 123 | 126 | 123 | 142 | 121 | 121 | 101 | 125 | 117 | 115 | 109 | 131 | 140 | 132 | 135 | 129 | 122 | 85.5 | 104 | 124 | 121 | 128 | 124 | 111 | 117 | 130 | 120 | 113 | 90
CC(C)C[C@H](NC(=O)[C@H](Cc1ccccc1)NC(=O)c1cnccn1)B(O)O | 82.8 | 88.2 | 95.9 | 46.6 | 5.6 | 4.11 | 3.83 | 3.37 | 2.58 | 1.95 | 1.04 | 90.9 | 102 | 113 | 38.4 | 6.07 | 3.74 | 3.71 | 3.19 | 2.6 | 1.56 | 0.977 | 90.4 | 84.7 | 84.5 | 31.1 | 6.17 | 4.26 | 4.12 | 3.78 | 3.01 | 2.1 | 1.1
CCNc1cc(NC2CCC(O)CC2)nc(Nc2ccc3c(ccn3Cc3ccccc3)c2)n1 (configuration not stated) | 102 | 119 | 129 | 127 | 118 | 137 | 124 | 147 | 123 | 117 | 105 |  |  |  |  |  |  |  |  |  |  |  |  |  |  |  |  |  |  |  |  |  | 
COC(=O)[C@@H](N)CCCNC(=N)N[N+](=O)[O-] | 82 | 37.9 | 89.1 | 96.1 | 94.3 | 95.1 | 87.2 | 110 | 93.1 | 89.9 | 95.2 | 95.5 | 39.2 | 90.7 | 92.1 | 95.2 | 102 | 90.3 | 101 | 104 | 104 | 101 | 85.1 | 26.2 | 78 | 89.3 | 101 | 84.8 | 99 | 108 | 101 | 107 | 104
O=C(CCCCCCC(=O)Nc1ccccc1)NO | 77.1 | 112 | 102 | 103 | 124 | 116 | 108 | 108 | 18.8 | 7.11 | 5.17 | 94.2 | 116 | 135 | 123 | 111 | 118 | 125 | 127 | 25 | 6.63 | 5.85 | 62.6 | 100 | 106 | 109 | 114 | 106 | 121 | 103 | 16.4 | 6.03 | 4.79
N[C@@H](CC(=O)N1CCn2c(nnc2C(F)(F)F)C1)Cc1cc(F)c(F)cc1F | 111 | 113 | 110 | 118 | 105 | 105 | 99.8 | 117 | 107 | 41.9 | 93.3 | 100 | 104 | 98.1 | 102 | 132 | 113 | 106 | 112 | 109 | 50 | 96.4 | 96.9 | 118 | 103 | 97.4 | 103 | 108 | 96.8 | 98.8 | 92.3 | 40.1 | 98.6
CCN(CC)CCN1C(=O)\C(=N/C2=CC=CC=C12)CC3=CC=C(OC)C=C3 | 68.2 | 67.5 | 87.2 | 76.3 | 85.3 | 80.3 | 99.1 | 83.6 | 75.2 | 86.8 | 85.4 | 82.7 | 93.1 | 97.8 | 78.5 | 93.8 | 105 | 101 | 106 | 91.9 | 92 | 107 | 78.2 | 89.4 | 87.1 | 89 | 94.3 | 97.1 | 112 | 96.6 | 93.3 | 88 | 102
CC[C@@]1(O)C[C@H](O[C@H]2C[C@H](N(C)C)[C@H](O[C@H]3C[C@H](O)[C@H](O[C@H]4CCC(=O)[C@H](C)O4)[C@H](C)O3)[C@H](C)O2)c2c(cc3c(c2O)C(=O)c2c(O)cccc2C3=O)[C@H]1C(=O)OC | 79.8 | 68.5 | 86.2 | 77.9 | 48.4 | 50 | 26.5 | 11.4 | 13.5 | 24 | 15.8 | 81 | 65.9 | 85.2 | 72.5 | 46.2 | 54.4 | 32.7 | 18.1 | 23.2 | 20.2 | 19.5 | 85.5 | 48.6 | 83.7 | 66.7 | 46.2 | 51.3 | 26.2 | 11.8 | 12.2 | 15.4 | 12.9
COC1=CC2=C(C=C1OC)[C@H]3[C@@H](CO2)OC4=C(C=CC5=C4\C=C/C(C)(C)O5)C3=O | 82.5 | 97.1 | 101 | 96.8 | 85.3 | 89 | 92.7 | 91 | 78.9 | 85.2 | 3.39 | 95.1 | 99.1 | 107 | 95.6 | 78.5 | 112 | 85.4 | 71 | 24.4 | 31 | 3.59 | 87.7 | 85.1 | 92.4 | 88.9 | 64.6 | 79.2 | 75.4 | 63 | 44.8 | 46.2 | 3.18
CO[C@H]1C[C@@H]2CC[C@@H](C)[C@@](O)(O2)C(=O)C(=O)N2CCCC[C@H]2C(=O)O[C@H]([C@H](C)C[C@@H]2CC[C@@H](OCCO)[C@H](OC)C2)CC(=O)[C@H](C)/C=C(/C)[C@@H](O)[C@@H](OC)C(=O)[C@H](C)C[C@H](C)\C=C/C=C\C=C/1C | 47.5 | 91.9 | 74.6 | 65.2 | 77.2 | 58.6 | 42.7 | 42.1 | 20.8 | 10.7 | 14.2 | 51.7 | 86.2 | 71.1 | 71.7 | 75 | 64.9 | 41.5 | 28.4 | 17.2 | 12.9 | 12.6 | 50.8 | 84 | 73.8 | 65.4 | 68.3 | 63.4 | 49.5 | 37 | 13.7 | 10.4 | 11.8
CCCCN(CCCC)C(=O)CN1C[C@H](c2ccc3c(c2)OCO3)[C@@H](C(=O)O)[C@@H]1c1ccc(OC)cc1 | 98.6 | 107 | 114 | 98.2 | 103 | 105 | 106 | 92.5 | 28.4 | 55.3 | 63.4 |  |  |  |  |  |  |  |  |  |  |  | 112 | 112 | 125 | 84.8 | 116 | 127 | 109 | 106 | 74.8 | 75.8 | 67
OC(COC1=C2C(=O)\C=C(/OC2=CC=C1)C([O-])=O)COC3=C4C(=O)\C=C(/OC4=CC=C3)C([O-])=O | 65.3 | 72.3 | 76 | 73.9 | 77.7 | 43.5 | 80.8 | 88 | 95.9 | 73.1 | 96.8 | 71 | 83.6 | 85.6 | 84.3 | 86.6 | 20.2 | 65.6 | 74.7 | 99.4 | 65.9 | 90.9 | 72.1 | 74.5 | 76.6 | 73.5 | 91.4 | 64 | 82.6 | 95.1 | 102 | 76.9 | 97.7
CC(C)(C)c1cc(C(=O)O)c(NC(=O)Nc2ccc3[nH]ncc3c2)s1 | 95.4 | 97.5 | 89.6 | 101 | 100 | 70.7 | 100 | 98.6 | 85.9 | 93.1 | 82.2 | 112 | 93.2 | 94.2 | 107 | 101 | 90.8 | 111 | 104 | 101 | 93.1 | 77.7 | 95.2 | 93.1 | 83.3 | 97.5 | 99.6 | 88.9 | 102 | 91 | 87.5 | 93.7 | 73.2
CC(NCc1ccc2c(c1)[nH]/c(=N\C(=O)c1ccc(-c3cn[nH]c3)s1)n2CC(C)(C)O)C(C)(C)C (configuration not stated) | 112 | 89.6 | 62.7 | 52.4 | 47.7 | 41 | 24.9 | 10.9 | 8.32 | 2.2 | 2.08 | 96.7 | 112 | 76.3 | 58.5 | 48 | 36.5 | 31.3 | 14.9 | 4.21 | 1.66 | 1.98 | 122 | 85.4 | 79.8 | 42.4 | 45.7 | 41.5 | 27.2 | 16.2 | 6.16 | 1.94 | 1.53
